Measurements reported in patent publication US8697911B2, “Rho kinase inhibitors” (Boehringer Ingelheim International GmbH, priority 2010, dated 2014).

Target: T1, ROCKII (1-543) (Homo sapiens (Human), UniProt O75116)
Assay: Luciferin-Luciferase Assay (Assay 1)
Format: biochemical
Conditions: luciferin-luciferase residual ATP; 750 nM ATP, 7.5 nM kinase
Description: 1. Luciferin-Luciferase Assay
The activity of ROCKII (1-543) kinase is measured utilizing Cambrex PKLight ATP Detection Reagent, a homogeneous assay technology using luciferin-luciferase to quantify residual ATP. The assay is performed in 384-well low-volume, white, non-binding surface microtiter plates (Corning). The assay buffer is 25 mM HEPES, pH 7.5, 10 mM MgCl2, 50 mM KCl, 0.2% BSA, 0.01% CHAPS, 100 μM Na3VO4 and 0.5 mM DTT. Test compounds, dissolved in neat DMSO at 500 μg/mL, are serially diluted for dose response for a final starting concentration of 3 μg/mL in 1% DMSO of assay buffer. ROCKII (1-543) (62,408 Da) is diluted in assay buffer to a final concentration of 7.5 nM in a total volume of 15 μL. Positive controls are reaction mixtures containing no test compound; negative controls (blanks) are reaction mixtures containing no kinase. After 15 minutes of pre-incubation of the test compounds with the kinase, a mixture of ATP and peptide substrate ([…]) in assay buffer is added to each well for a final concentration of 750 nM ATP and 500 nM peptide, respectively. After 90 minutes of incubation of the kinase reaction at 28° C. temperature, 10 μL of PKLight ATP Detection Reagent (warmed to room temperature previously) is added to each well. The assay plate is incubated at room temperature for additional 15 minutes and then read on an Analyst in luminescence mode. Dose-response experiments for each of the test compounds are conducted in quadruplet. IC50 values of test compounds represent 50% response of the positive control from the dose-response curve.
Target sequence in this assay (O75116 1-543): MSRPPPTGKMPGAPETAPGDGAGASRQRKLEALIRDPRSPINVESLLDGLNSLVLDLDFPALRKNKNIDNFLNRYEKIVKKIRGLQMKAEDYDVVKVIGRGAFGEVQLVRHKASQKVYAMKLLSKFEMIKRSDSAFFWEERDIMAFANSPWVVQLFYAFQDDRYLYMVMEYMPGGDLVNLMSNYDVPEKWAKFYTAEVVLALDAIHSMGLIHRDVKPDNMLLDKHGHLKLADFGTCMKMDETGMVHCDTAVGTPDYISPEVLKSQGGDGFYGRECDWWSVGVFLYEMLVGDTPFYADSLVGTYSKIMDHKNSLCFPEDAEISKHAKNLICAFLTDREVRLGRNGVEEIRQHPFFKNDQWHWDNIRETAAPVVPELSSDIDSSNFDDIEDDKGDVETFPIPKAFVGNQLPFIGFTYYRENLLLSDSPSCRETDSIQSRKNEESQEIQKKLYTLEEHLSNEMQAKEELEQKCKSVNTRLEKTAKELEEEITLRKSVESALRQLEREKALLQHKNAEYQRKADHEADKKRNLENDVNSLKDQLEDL

Structure (SMILES)	IC50 [nM]
CN1CCc2ccc(NC(=O)c3cccc(CNC(=O)c4ccc(-c5cnco5)cc4)c3)cc2C1 [compound 49]	2.6
CN1CCc2ccc(NC(=O)c3cccc(CNC(=O)c4cn5ccc(C(N)=O)cc5n4)c3)cc2C1 [compound 50, imidazo[1,2-a]pyridine-2,7-dicarboxylic acid 7-amide 2-[3-(2-methyl-1,2,3,4-tetrahydro-isoquinolin-7-ylcarbamoyl)-benzylamide]]	2.9
CN1CCc2ccc(NC(=O)c3cccc(CNC(=O)c4cn5ccc(C#N)cc5n4)c3)cc2C1 [compound 18]	19.3
Cc1nc2cnccc2n1-c1ccc(C(=O)NCc2cccc(C(=O)Nc3ccc4c(c3)CN(C)CC4)c2)cc1 [compound 198]	38
CN1CCc2ccc(NC(=O)c3cccc(CNC(=O)c4cc5cc(C(N)=O)ccc5n4C)c3)cc2C1 [compound 96]	3.8
CN1CCc2ccc(NC(=O)c3cccc(CNC(=O)c4ccc(-c5nnco5)cc4)c3)cc2C1 [compound 145]	49.3
CN1CCc2ccc(NC(=O)c3cccc(CNC(=O)c4cc5cccc(O)c5cc4O)c3)cc2C1 [compound 133]	80
CN1CCc2ccc(NC(=O)c3cccc(CNC(=O)c4cccc(-n5ccnc5)c4)c3)cc2C1 [compound 186]	14.5
CN1CCc2ccc(NC(=O)c3cccc(CNC(=O)c4cccc(-c5cn[nH]c5)c4)c3)cc2C1 [compound 3]	4
CN1CCc2ccc(NC(=O)c3cccc(CNC(=O)c4ccc(-c5ccc(N)nc5)s4)c3)cc2C1 [compound 177]	68
CN1CCc2ccc(NC(=O)c3cccc(CNC(=O)c4ccc5c(c4)CCC(=O)N5)c3)cc2C1 [compound 184]	18
CN1CCc2ccc(NC(=O)c3cccc(CNC(=O)c4cccc(-c5ccncc5)c4)c3)cc2C1 [compound 69]	44.5
CN1CCc2ccc(NC(=O)c3cccc(CNC(=O)c4cccc(-c5cccnc5)c4)c3)cc2C1 [compound 53]	28
CN1CCc2ccc(NC(=O)c3cccc(CNC(=O)c4cc(-c5cccnc5)[nH]n4)c3)cc2C1 [compound 188]	91.5
CN1CCc2ccc(NC(=O)c3cccc(CNC(=O)c4ccc5[nH]c(=O)ccc5c4)c3)cc2C1 [compound 175]	22.5
Cc1nnnn1-c1ccc(C(=O)NCc2cccc(C(=O)Nc3ccc4c(c3)CN(C)CC4)c2)cc1 [compound 37]	43.5
CN1CCc2ccc(NC(=O)c3cccc(CNC(=O)c4csc(-c5ccncc5)n4)c3)cc2C1 [compound 33]	33
CN1CCc2ccc(NC(=O)c3cccc(CNC(=O)c4cn5cc(C#N)ccc5n4)c3)cc2C1 [compound 48]	35.5
CN1CCc2ccc(NC(=O)c3cccc(CNC(=O)c4ccc(-c5cccnc5)s4)c3)cc2C1 [compound 62, 5-pyridin-3-yl-thiophene-2-carboxylic acid 3-(2-methyl-1,2,3,4-tetrahydro-isoquinolin-7-ylcarbamoyl)-benzylamide]	18.5
CCn1c(C(=O)NCc2cccc(C(=O)Nc3ccc4c(c3)CN(C)CC4)c2)cc2ccc(C#N)cc21 [compound 118]	24
CN1CCc2ccc(NC(=O)c3cccc(CNC(=O)c4ccc5c(c4)OCC(=O)N5)c3)cc2C1 [compound 182]	81
CN1CCc2ccc(NC(=O)c3cccc(CNC(=O)C4=NC5=CC=NC(=O)C5C=C4)c3)cc2C1 (stereo not drawn) [compound 122]	27.5
CCN1C(=O)CSc2ccc(C(=O)NCc3cccc(C(=O)Nc4ccc5c(c4)CN(C)CC5)c3)cc21 [compound 210]	86
CN1CCc2nc(NC(=O)c3cccc(CNC(=O)c4ccc(-c5cccnc5)s4)c3)sc2C1 [compound 110]	15.5
CCn1c(C(=O)NCc2cccc(C(=O)Nc3ccc4c(c3)CN(C)CC4)c2)cc2cc(C#N)ccc21 [compound 102]	47
Cc1ncc(-c2ccc(C(=O)NCc3cccc(C(=O)Nc4ccc5c(c4)CN(C)CC5)c3)s2)o1 [compound 68]	64.2

The remaining lines, values ahead:

IC50 [nM]	Structure (SMILES)
0.72	N[C@H]1CCc2nc(NC(=O)c3cccc(CNC(=O)c4cccc(-c5cn[nH]c5)c4)c3)sc2C1 [compound 30]
45.7	CN1CCc2nc(NC(=O)c3cccc(CNC(=O)c4cn5cc(C#N)ccc5n4)c3)sc2C1 [compound 88]
3.8	CN1CCc2nc(NC(=O)c3cccc(CNC(=O)c4cc5cc(C#N)ccc5n4C)c3)sc2C1 [compound 124]
1.9	N[C@@H]1CCc2nc(NC(=O)c3cccc(CNC(=O)c4cccc(-c5cccnc5)c4)c3)sc2C1 [compound 40]
1.2	N[C@H]1CCc2nc(NC(=O)c3cccc(CNC(=O)c4cccc(-c5cccnc5)c4)c3)sc2C1 [compound 42]
14.5	Cc1ncc(-c2ccc(C(=O)NCc3cccc(C(=O)Nc4nc5c(s4)CN(C)CC5)c3)s2)o1 [compound 116]
14.3	N[C@@H]1CCc2nc(NC(=O)c3cccc(CNC(=O)c4ccc(-c5csnn5)cc4)c3)sc2C1 [compound 24]

Target: T1, ROCKII (1-543)
Assay: IMAP Assay (Assay 2)
Format: biochemical
Conditions: IMAP fluorescence polarization; 100 μM ATP, 1 nM kinase
Description: This assay is performed using FAM S6 substrate peptide (Catalogue #R7184) and IMAP FP Screening Express Kit detection reagents from Molecular Devices (Sunnyvale, Calif.) in IMAP kinase reaction buffer (Tris-HCl, pH 7.2, 10 mM MgCl2, 0.05% NaN3, 0.1% phosphate-free BSA) containing 1 mM DTT. Test compounds dissolved in neat DMSO at 0.3 mg/mL are serially diluted 1 to 3 for concentration response in 100% DMSO. The DMSO serial dilutions are further diluted 33.33-fold in kinase reaction buffer, and 10 μL of this buffer dilution is transferred to Corning black 96-well half area NBS plates for a final top concentration of 3 μg/mL in 1% DMSO. 10 μL aliquot of 3 nM ROCKII (1-543) diluted in kinase reaction buffer is added to each assay well for a final concentration of 1 nM kinase. 10 μL of a mixture of 600 nM FAM S6 peptide and 300 μM ATP diluted in kinase reaction buffer is added to each well for a final concentration of 200 nM peptide and 100 μM ATP. The kinase reaction mixture is incubated for 60 minutes at room temperature. Positive controls are reaction mixtures containing no test compound and negative controls (blanks) are reaction mixtures containing no kinase. The kinase reaction is stopped by addition of 60 μL IMAP progressive binding reagent (Catalog #R7284) diluted 400-fold in 1× Binding buffer A. After 30 min of incubation at room temperature, the plates are read for fluorescence polarization on Analyst Plate Reader using Ex 485 nm, Em 530 nm, and FL 505 dichroic minor. The mP signals are converted to percent of control (POC) values using the formula: POC=100*(Signal−BCTRL)÷(PCTRL−BCTRL)
Where Signal is the test well signal, BCTRL is the average of background (negative control) well signals on the plate and PCTRL is the average of positive control well signals on the plate. For the concentration-responsive compounds, POC as a function of test compound concentration is fitted to a 4-parameter logistic equation of the form: Y=A+(B−A)/[1+(x/C)D]
Where A, B, C, and D are fitted parameters (parameter B is fixed at zero POC), and x and y are the independent and dependent variables, respectively. The IC50 is determined as the inflection point parameter, C.
Target sequence in this assay (O75116 1-543, species assumed): as the sequence (O75116 1-543) above

Structure (SMILES)	IC50 [nM]
CN1CCc2ccc(NC(=O)c3cccc(CNC(=O)c4ccc(-c5cnco5)cc4)c3)cc2C1 [compound 49]	26
CN1CCc2ccc(NC(=O)c3cccc(CNC(=O)c4cn5ccc(C(N)=O)cc5n4)c3)cc2C1 [compound 50, imidazo[1,2-a]pyridine-2,7-dicarboxylic acid 7-amide 2-[3-(2-methyl-1,2,3,4-tetrahydro-isoquinolin-7-ylcarbamoyl)-benzylamide]]	11
CN1CCc2ccc(NC(=O)c3cccc(CNC(=O)c4cc5cc(C(N)=O)ccc5n4C)c3)cc2C1 [compound 96]	12.2
CN1CCc2ccc(NC(=O)c3cccc(CNC(=O)c4cccc(-c5cn[nH]c5)c4)c3)cc2C1 [compound 3]	5.1
CN1CCc2ccc(NC(=O)c3cccc(CNC(=O)c4ccc(-c5cn[nH]c5)s4)c3)cc2C1 [compound 78, 5-(1H-pyrazol-4-yl)-thiophene-2-carboxylic acid 3-(2-methyl-1,2,3,4-tetrahydro-isoquinolin-7-ylcarbamoyl)-benzylamide]	0.17
CN1CCc2ccc(NC(=O)c3cccc(CNC(=O)c4nc(-c5cccnc5)cs4)c3)cc2C1 [compound 202]	72
CN1CCc2ccc(NC(=O)c3cccc(CNC(=O)c4ccc(-c5ccncc5)s4)c3)cc2C1 [compound 70]	0.25

More lines, now with the values ahead:

IC50 [nM]	Structure (SMILES)
0.16	N[C@H]1CCc2nc(NC(=O)c3cccc(CNC(=O)c4cccc(-c5cn[nH]c5)c4)c3)sc2C1 [compound 30]
11	CN1CCc2nc(NC(=O)c3cccc(CNC(=O)c4cc5cc(C#N)ccc5n4C)c3)sc2C1 [compound 124]
10	N[C@@H]1CCc2nc(NC(=O)c3cccc(CNC(=O)c4cccc(-c5cccnc5)c4)c3)sc2C1 [compound 40]
2	N[C@H]1CCc2nc(NC(=O)c3cccc(CNC(=O)c4cccc(-c5cccnc5)c4)c3)sc2C1 [compound 42]
0.87	N#Cc1ccc2cc(C(=O)NCc3cccc(C(=O)Nc4nc5c(s4)C[C@@H](N4CCOCC4)CC5)c3)[nH]c2c1 [compound 176]
0.27	CN(C)[C@H]1CCc2nc(NC(=O)c3cccc(CNC(=O)c4ccc(-c5ccncc5)s4)c3)sc2C1 [compound 126]
0.73	O=C(Nc1nc2c(s1)C[C@@H](N1CCOCC1)CC2)c1cccc(CNC(=O)c2csc(-c3cccnc3)n2)c1 [compound 146]
2.65	Nc1nonc1-n1nnc(C(=O)NCc2cccc(C(=O)Nc3nc4c(s3)C[C@@H](N3CCOCC3)CC4)c2)c1-c1ccccc1 [compound 150]
0.33	Cc1c(C(=O)NCc2cccc(C(=O)Nc3nc4c(s3)C[C@@H](N(C)C)CC4)c2)nnn1-c1nonc1N [compound 142]
0.77	CN1CCc2nc(NC(=O)c3cccc(CNC(=O)c4ccc(-c5cn[nH]c5)s4)c3)sc2C1 [compound 120]
0.45	CN1CCc2nc(NC(=O)c3cccc(CNC(=O)c4ccc(-c5cnco5)s4)c3)sc2C1 [compound 114]
0.34	O=C(Nc1nc2c(s1)C[C@@H](N1CCOCC1)CC2)c1cccc(CNC(=O)c2cc(-c3ccncc3)[nH]n2)c1 [compound 166]
0.2	CN(C)[C@H]1CCc2nc(NC(=O)c3cccc(CNC(=O)c4ccc(-c5cnco5)cc4)c3)sc2C1 [compound 136]
0.43	Cc1nnnn1-c1ccc(C(=O)NCc2cccc(C(=O)Nc3nc4c(s3)C[C@@H](N(C)C)CC4)c2)cc1 [compound 104]
